Data: patent US20150111860A1, “SUSPOEMULSION” (SUMITOMO CHEMICAL COMPANY, LIMITED, priority 2012, published 2015)
Where two headings read alike, the source gives them in different places.

Assay: Solubility of ingredient (2) in 100 g of the oil phase (ingredient (1)) at 25° C. by HPLC
Format: physicochemical
Procedure: The solubility can be determined in the following manner. That is, an ingredient (2) is added to an ingredient (1), followed by mixing with stirring. After being left to stand in a constant temperature water bath at 25° C., the supernatant containing the ingredient (2) in a saturated state is isolated and filtered to obtain a solution, and then a prescribed amount of an internal standard fluid is added to prepare a sample liquid for analysis. Using the sample liquid for analysis, high-performance liquid chromatography is performed, thus enabling the measurement of the solubility.

[1] = oil phase composed of pyridalyl and Exxsol D110, 25° C.

SMILES: CN/C(=N\[N+](=O)[O-])NCc1cnc(Cl)s1 [clothianidin]
- solubility in 100 g of the oil phase (oil phase composed of esfenvalerate and Solvesso 150, 25° C.): 0.003 g
- solubility in 100 g of the oil phase [1]: 0.009 g
- solubility in 100 g of the oil phase (oil phase composed of tolclofos-methyl and Solvesso 150, 25° C.): 0.002 g

SMILES: CCNc1nc(CC)c(C(=O)NC(C#N)c2cccs2)s1 (stereo not drawn) [ethaboxam]
- solubility in 100 g of the oil phase: 0.003 g

SMILES: Cc1nn(C)c(Cl)c1C(=O)Nc1cccc2c1C(C)OC2(C)C (stereo not drawn) [furametpyr]
- solubility in 100 g of the oil phase: 0.394 g

SMILES: N#Cc1ccccc1NC(=O)c1snc(Cl)c1Cl [isotianil]
- solubility in 100 g of the oil phase [1]: 0.020 g
